# Results as given in US20230312639A1, “GPER PROTEOLYTIC TARGETING CHIMERAS” (University of Iowa Research Foundation, priority 2020, published 2023).
# Columns and labels:
# HA-b1AR = molecular target: T1, HA-b1AR (Homo sapiens, UniProt P08588); assay: Immunofluorescence with HA antibody, stably transfected HEK293 cells; type: cell-based; details: 100 µM, 1 hour
# T1 construct: expressed in transfected cells
# ERβ = ERβ (Homo sapiens, UniProt Q92731); assay: Immunostaining of endogenous receptors in MCF-7 cells; details: MCF-7, 1 hour
# HiBiT-GPER = HiBiT-GPER (Homo sapiens, UniProt Q99527); assay: Nano-BiT binary luminescence complementation, transfected HEK-293 cells, total receptor; type: cell-based
# Description: FIG. 26. […] HEK-293 cells (ERα^-, GPER^-) were transiently transfected with 50 ng HiBiT-GPER or HiBiT-ER plus pcDNA3.1(+) zeo carrier plasmid. […] (C) Histogram depicting total HiBiT-GPER and HiBiT-ER following a 1-hour treatment at […] drug or control. […] Results shown represent the mean ± S.E. of three independent experiments.
# FIG. 28. […] Total receptor was then measured by binary luminescence complementation in detergent-permeabilized cells. […] Total receptor was then quantified by binary luminescence complementation. Representative luminescence data and mean values and SDs derived from three independent experiments are shown.
# Transient transfections and binary Nano-Bit ™ luminescence assays. Total HiBiT-tagged GPER or ER estrogen receptors were detected in detergent-permeabilized cells by binary luminescence complementation with recombinant LgBit and substrate using the Nano-Glo HiBiT Extracellular Detection system kit (Promega Corporation, Madison, Wl). In brief, HEK293 cells (0.75 × 10^6) were seeded in 35 mm tissue culture dishes and 24 hours later were transiently transfected with 50 ng of HiBiT-GPER or HiBiT-ERa and 950 ng of pcDNA3.1(+) zeo carrier plasmid using Lipofectamine 2000 (Invitrogen, Carlsbad, CA). The next day transfected cells were harvested by trypsinization and seeded at a density of 10^4 cells/well in 96-well poly-L-lysine-coated Greiner white-bottomed microplates. On the following day, cell culture media was aspirated and replaced with 100 µL of serum-free PRF-DF12 containing E2-PROTAC, partial-PROTAC, or vehicle at various concentrations and for indicated time intervals at 37° C. […] Following treatment, total HiBiT-tagged receptor was measured in cells which were permeabilized in 0.05% Triton X-100 using HiBiT complementation reagent consisting of LgBiT protein and Nano-Gio® HiBiT substrate. Luminescence was measured using the Infinite 200 PRO multimode microplate reader from Tecan (Raleigh, NC) and reported as Relative Luminescent Units (RLU). All samples were measured in triplicate and expressed as the mean value plus or minus standard deviation.
# GPER = GPER (Homo sapiens, UniProt Q99527); assay: Immunostaining of endogenous receptors in MCF-7 cells; details: MCF-7, 1 hour
# native GPER = molecular target: T2, native GPER (Homo sapiens, UniProt Q99527); assay: Surface GPER immunostaining in human breast cancer cells (SKBR3, HCC-1806); type: cell-based
# T2 construct: Similar results were obtained for native GPER in her2+ and TNBC breast cancer cells; endogenous in cells; host or cells: SKBR3 and HCC-1806 human breast cancer cells
# Description: FIG. 4. PROTAC prototype Ul-EP001 reduces surface GPER. Similar results were obtained for native GPER in her2+ and TNBC breast cancer cells.
# FIG. 18. […] Structure (A) and NMR spectrum (B) of UI-EP001. Human SKBR3 (Her2+) and HCC-1806 (TNBC) breast cancer cells were exposed to vehicle (untreated) or 100 µM of partial-PROTAC or E2p-PROTAC, Ul-EP001 for 16 hours. Cells were immunostained with GPER antibodies for 30 minutes and surface GPER was detected using goat anti-rabbit Alexa 594 IgG (red). Nuclei were countertained with DAPI (blue). (C).HA-GPER or HA-β1AR cells were treated with Ul-EP001 for the indicated times and immunoblotted with HA antibody (D) or immunostained for surface receptor (E). Total corrected red fluorescence (red) (TCRF) of treated and untreated HA-GPER or HA-β1AR cells was measured by subtracting cell background. […] Data not shown, no difference in surface GPER expression is measured in cells similarly treated with free 17β-E2.
# To screen GPER-PROTACs, a GPER binding assay that measures a high-affinity (Kd= 2.7 nm), limited capacity, displaceable, single binding site specific for estrogens in plasma membranes of human SKBR3 breast cancer cells that express GPER but lack nuclear ER may be used (Thomas et al., 2005). GPER undergoes an uncommon mechanism of endocyosis that requires neither receptor phosphorylation, interaction with β--arrestin nor lysosomal activity. […]
# Chain of HiBiT-GPER (Q99527 whole entry): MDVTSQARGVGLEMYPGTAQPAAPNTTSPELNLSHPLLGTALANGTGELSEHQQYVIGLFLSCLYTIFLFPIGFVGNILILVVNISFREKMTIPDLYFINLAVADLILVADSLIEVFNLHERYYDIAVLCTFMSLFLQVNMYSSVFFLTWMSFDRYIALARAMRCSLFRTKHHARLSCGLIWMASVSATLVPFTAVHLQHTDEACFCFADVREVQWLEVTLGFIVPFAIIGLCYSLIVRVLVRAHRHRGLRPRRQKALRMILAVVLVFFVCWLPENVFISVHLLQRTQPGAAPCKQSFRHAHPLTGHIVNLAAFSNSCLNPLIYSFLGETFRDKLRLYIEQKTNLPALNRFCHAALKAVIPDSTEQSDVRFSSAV
# Chain of ERβ (Q92731 whole entry): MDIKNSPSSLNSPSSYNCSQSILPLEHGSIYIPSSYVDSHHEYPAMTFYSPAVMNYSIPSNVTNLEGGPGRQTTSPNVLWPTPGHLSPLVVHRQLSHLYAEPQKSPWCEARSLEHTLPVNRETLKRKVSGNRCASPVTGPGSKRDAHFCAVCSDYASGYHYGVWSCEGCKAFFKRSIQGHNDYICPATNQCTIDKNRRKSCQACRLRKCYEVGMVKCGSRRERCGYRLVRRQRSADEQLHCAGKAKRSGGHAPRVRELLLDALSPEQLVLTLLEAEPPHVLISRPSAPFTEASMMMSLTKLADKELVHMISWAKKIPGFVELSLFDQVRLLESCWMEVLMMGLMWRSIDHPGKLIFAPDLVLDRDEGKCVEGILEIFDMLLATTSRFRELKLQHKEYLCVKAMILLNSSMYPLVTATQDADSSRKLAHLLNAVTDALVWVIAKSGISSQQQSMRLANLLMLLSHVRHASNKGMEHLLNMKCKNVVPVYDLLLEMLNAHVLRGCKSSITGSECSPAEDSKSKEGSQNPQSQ
# T1 sequence (P08588 whole entry): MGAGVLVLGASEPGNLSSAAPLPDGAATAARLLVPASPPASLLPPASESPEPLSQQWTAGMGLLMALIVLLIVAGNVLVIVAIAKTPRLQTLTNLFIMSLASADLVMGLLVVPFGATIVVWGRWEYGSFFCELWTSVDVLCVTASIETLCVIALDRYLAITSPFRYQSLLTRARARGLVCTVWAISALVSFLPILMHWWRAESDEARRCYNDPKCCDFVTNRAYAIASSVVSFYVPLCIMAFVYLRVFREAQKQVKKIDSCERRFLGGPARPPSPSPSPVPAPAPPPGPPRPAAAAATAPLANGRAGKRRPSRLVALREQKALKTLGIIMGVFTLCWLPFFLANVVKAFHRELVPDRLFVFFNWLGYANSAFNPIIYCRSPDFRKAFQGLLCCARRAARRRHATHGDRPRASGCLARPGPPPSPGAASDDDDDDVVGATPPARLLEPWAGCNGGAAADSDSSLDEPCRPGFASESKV
# T2 sequence (Q99527 whole entry): as the sequence (Q99527 whole entry) above
# Chain of GPER (Q99527 whole entry): as above
smiles,measurement,setting,value
Cc1ncsc1-c1ccc(CNC(=O)C2CC(O)CN2C(=O)C(NC(=O)COCCOCCOCCOCC(=O)OC2CCC3C4CCc5cc(O)ccc5C4CCC23C)C(C)(C)C)cc1 (stereo not shown) [UI-EP001],off-target degradation of HA-b1AR,HA-b1AR,without detectable off-target degradation
same,nuclear ERβ expression,ERβ,Clear site-specific reduction
same,reduction in expression level of recombinant GPER,"HiBiT-GPER; 100 µM, as early as 1 h",50%
same,DC50,"HiBiT-GPER; 1 hour treatment, detergent-permeabilized cells, read-out: DC50 (concentration required for 50% protein degradation), GPER",100 µM
same,change of HiBiT-GPER,"HiBiT-GPER; increasing doses, 1 hour, partial PROTAC 100 µM",dose-dependent decrease
same,intracellular GPER expression,GPER,Clear site-specific reduction
same,expression of native GPER,native GPER,downmodulates the expression of native GPER
